Where a name gives a salt, the structure may show the parent alone. Read-outs that look alike come from different tables or passages of the source.
Assays:
sigma receptor = assay: Sigma binding test (in vitro), inhibition of [3H] ditolylguanidine binding; design: species or system guinea pig
Method: b) Sigma binding test (in vitro)
The affinity of the compounds of the invention to the sigma receptor in brain tissue is evaluated by the degree of inhibition of the binding of a sigma site radioligand in in vitro competition experiments.
The experiment protocol used is that described by WEBER et at. Proc. Nat. Acad. Sci. USA, (1986), 83, 8784-8788.
The ligand is 1,2-di-(2-[5-^3 H]tolyl)guanidine (Dupont de Nemours--55 Ci/mmol) at a final concentration of 2 nM.
The membrane preparation is a suspension of central nervous system microsomes of a guinea pig used at a final concentration of 0.5 mg of prot/ml.
The non-specific fixation is determined in the presence of 10 μM of haloperidol.
The results, given in Table III, to illustrate the invention are expressed at IC50 =K.0.5 (M)

5HT1A receptor = molecular target: T1, 5HT1A receptor (Rattus norvegicus, UniProt P19327); assay: "Tail-Flicks" test on rats (reduction of 8-OH-DPAT induced tail movements); type: in vivo; details: sc, tail movements induced by subcutaneous 8-OH-DPAT, read-out: ED50 (amount that reduces 8-OH-DPAT action by 50%)
T1 construct: Subcutaneous injection of rats with 8-OH-DPAT spontaneously induces tail movements; from tissue; host or cells: whole living rat (in vivo)
T1 sequence (P19327 1-422): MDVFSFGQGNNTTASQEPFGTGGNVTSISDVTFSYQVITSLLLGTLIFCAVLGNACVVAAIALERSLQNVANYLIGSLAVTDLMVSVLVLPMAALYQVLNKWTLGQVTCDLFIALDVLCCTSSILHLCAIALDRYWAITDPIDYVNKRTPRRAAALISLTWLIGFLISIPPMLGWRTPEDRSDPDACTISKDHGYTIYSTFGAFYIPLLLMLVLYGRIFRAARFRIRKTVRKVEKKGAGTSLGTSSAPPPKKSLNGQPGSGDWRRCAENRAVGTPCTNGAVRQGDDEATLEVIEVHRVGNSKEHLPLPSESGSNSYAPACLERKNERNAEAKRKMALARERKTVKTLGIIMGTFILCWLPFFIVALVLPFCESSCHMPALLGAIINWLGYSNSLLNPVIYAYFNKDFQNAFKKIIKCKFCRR
Description: a) "Tail-Flicks" test on rats
Subcutaneous injection of rats with 8-OH-DPAT spontaneously induces tail movements ("Tail-Flicks"). These movements are reduced in a specific manner by 5HT1A receptor antagonists. The ED50 values, that is to say those amounts of the compounds of the invention that reduce 8-OH-DPAT action by 50%, are listed in Table II.

[1] = guinea pig central nervous system microsomes, 0.5 mg of prot/ml, ligand 2 nM, non-specific: 10 μM haloperidol

Row | ED50 (5HT1A receptor) | IC50 (sigma receptor; [1]) | Structure (SMILES) | IC50 (sigma receptor)
1 | – | – | CN(C(=O)Oc1ccccc1)C1CCN(CC2Cc3ccccc32)CC1 (stereo not drawn) [Example 12, Phenyl N-[1-(benzocyclobuten-1-ylmethyl)-piperid-4-yl]-N-methylcarbamate hydrochloride] | 30 nM
2 | 1.25 mg/kg | 50 nM | C=COC(=O)N(C)C1CCN(CC2Cc3ccccc32)CC1 (racemic) [Example 42, (R,S)-vinyl N-[1-(benzocyclobuten-1ylmethyl)-piperid-4-yl]-N-methylcarbamate hydrochlo ride] | –
3 | 1.25 mg/kg | – | CCOC(=O)N(CC)C1CCN(CC2Cc3ccccc32)CC1 (stereo not drawn) [Example 13, Ethyl N-[1-(benzocyclobuten-1-ylmethyl)-piperid-4-yl]-N-ethylcarbamate hydrochloride] | –
4 | 0.63 mg/kg | – | CCN(C(C)=O)C1CCN(CC2Cc3ccccc32)CC1 (stereo not drawn) [Example 21, N-[1-(benzocyclobuten-1-ylmethyl)-piperid-4-yl]-N-ethylacetamide hydrochloride] | –
5 | – | 30 nM | CN(C(=O)OCc1ccccc1)C1CCN(CC2Cc3ccccc32)CC1 (stereo not drawn) [Example 19, Benzyl N-[1-(benzocyclobuten-1-ylmethyl)-piperid-4-yl]-N-methylcarbamate hydrochloride] | –
6 | 2.5 mg/kg | – | CCOC(=O)N(C)C1CCN(CC2Cc3c2ccc2c3OCO2)CC1 (stereo not drawn) [Example 28, Ethyl N-{1-[(3,4-methylenedioxybenzocyclobuten-1-yl)methyl[-piperid-4-yl}-N-methylcarbamate fumarate] | –
7 | 2.5 mg/kg | 40 nM | CCCOC(=O)N(C)C1CCN(C2Cc3ccccc3C2)CC1 [Example 44, Propyl N-[1-(indan-2-yl)-piperid-4-yl]-N-methylcarbamate] | –
8 | 1.25 mg/kg | 100 nM | CC(C)COC(=O)N(C)C1CCN(CC2Cc3ccccc32)CC1 (stereo not drawn) [Example 15, Isobutyl N-[1-(benzocyclobuten-1-ylmethyl)-piperid-4-yl]-N-methylcarbamate fumarate] | –
9 | 1.25 mg/kg | – | COC(=O)N(C)C1CCN(CC2Cc3ccccc32)CC1 (stereo not drawn) [Example 8, Methyl [1-benzocyclobuten-1-ylmethyl)-piperid-4-yl]-N-methylcarbamate hydrochloride] | –
10 | 0.02 mg/kg | – | CCN(C(=O)OC)C1CCN(CC2Cc3ccccc32)CC1 (stereo not drawn) [Example 14, Methyl N-[1-(benzocyclobuten-1-ylmethyl)-piperid-4-yl]-N-ethylcarbamate hydrochloride] | –
11 | – | 4 nM | CC(C)COC(=O)N(C)C1CCN(C2Cc3ccccc3C2)CC1 [Example 43, Isobutyl N-[1-(indan-2-yl)-piperid-4-yl]-N-methylcarbamate fumarate] | –
12 | 0.31 mg/kg | 30 nM | CCCOC(=O)N(C)C1CCN(CC2Cc3ccccc32)CC1 (stereo not drawn) [Example 9, Propyl N-[1-(benzocyclobuten-1-ylmethyl)-piperid-4-yl]-N-methylcarbamate hydrochloride] | –
13 | 2.5 mg/kg | – | CN(C(=O)OC(C)(C)C)C1CCN(CC2Cc3ccccc32)CC1 (stereo not drawn) [Example 11, Tert-butyl N-[1-(benzocyclobuten-1-ylmethyl)-piperid-4-yl]-N-methylcarbamate hydrochl oride] | –
14 | 2.5 mg/kg | – | CCOC(=O)N(C)C1CCN(CC2Cc3ccccc32)CC1 (stereo not drawn) [Example 23, Ethyl N-[1-(benzocyclobuten-1-ylmethyl)-piperid-4-yl]-N-methylcarbamate hydrochloride] | –

— US5214055A, “Aminopiperidine 4-oxo-4H-chromen-2-yl compounds” (Adir et Compagnie, priority 1990, dated 1993)
